Assay results from ChEMBL document CHEMBL5143732 (J Med Chem, 2022).
Converted amounts (≈) assume the structure as drawn.

Legend:
Candida albicans = test: Antifungal activity against Candida albicans assessed as inhibition of fungal growth measured after 48 hrs by CLSI based agar dilution method; type: functional
Pichia kudriavzevii [1] = test: Antifungal activity against Candida krusei assessed as inhibition of fungal growth measured after 48 hrs by CLSI based agar dilution method; type: functional
[2] = Hemolytic activity in human RBC measured after 1 hr; type: toxicity, cell-based, Erythrocyte; details: red blood cells (erythrocytes)
Candida tropicalis = test: Antifungal activity against Candida tropicalis assessed as inhibition of fungal growth measured after 48 hrs by CLSI based agar dilution method; type: functional
Cryptococcus neoformans = test: Antifungal activity against Cryptococcus neoformans ATCC 32609 assessed as inhibition of fungal growth measured after 48 hrs by CLSI based agar dilution method; type: functional
Pichia kudriavzevii [3] = test: Antifungal activity against Candida krusei ATCC 6258 assessed as inhibition of fungal growth measured after 48 hrs by CLSI based agar dilution method; type: functional
Candida parapsilosis = test: Antifungal activity against Candida parapsilosis assessed as inhibition of fungal growth measured after 48 hrs by CLSI based agar dilution method; type: functional; details: Lodderomyces parapsilosis

SMILES | MIC (Candida albicans) [µg/mL] | MIC (Pichia kudriavzevii [1]) [µg/mL] | MIC (Candida tropicalis) [µg/mL] | MIC (Cryptococcus neoformans) [µg/mL] | MIC (Pichia kudriavzevii [3]) [µg/mL] | MIC (Candida parapsilosis) [µg/mL] | HC50 at 1 h [2] [µM]
CC(=O)NNC(=O)[C@H]1[C@@H]2C[C@@H](O[C@@H]3O[C@H](C)[C@@H](O)[C@H](N)[C@@H]3O)/C=C/C=C/C=C/C=C/C=C/C=C/C=C/[C@H](C)[C@@H](O)[C@@H](C)[C@H](C)OC(=O)C[C@H](O)C[C@H](O)CC[C@@H](O)[C@H](O)C[C@H](O)C[C@](O)(C[C@@H]1O)O2 | 0.25 (≈ 0.255 µM) | 0.125 (≈ 0.128 µM) | 2 (≈ 2.04 µM) | 0.125 (≈ 0.128 µM) | 1 (≈ 1.02 µM) | 1 (≈ 1.02 µM) | 5.61
COC(=O)NNC(=O)[C@H]1[C@@H]2C[C@@H](O[C@@H]3O[C@H](C)[C@@H](O)[C@H](N)[C@@H]3O)/C=C/C=C/C=C/C=C/C=C/C=C/C=C/[C@H](C)[C@@H](O)[C@@H](C)[C@H](C)OC(=O)C[C@H](O)C[C@H](O)CC[C@@H](O)[C@H](O)C[C@H](O)C[C@](O)(C[C@@H]1O)O2 | 0.015 (≈ 0.0151 µM) | 0.015 (≈ 0.0151 µM) | 0.5 (≈ 0.502 µM) | 0.125 (≈ 0.125 µM) | 0.25 (≈ 0.251 µM) | 0.5 (≈ 0.502 µM) | 5.69
CNCC(=O)N[C@@H]1[C@H](O)[C@H](O[C@H]2/C=C/C=C/C=C/C=C/C=C/C=C/C=C/[C@H](C)[C@@H](O)[C@@H](C)[C@H](C)OC(=O)C[C@H](O)C[C@H](O)CC[C@@H](O)[C@H](O)C[C@H](O)C[C@]3(O)C[C@H](O)[C@@H](C(=O)N(C)CCCO)[C@H](C2)O3)O[C@H](C)[C@H]1O | 0.06 (≈ 0.0563 µM) | 0.5 (≈ 0.469 µM) | 4 (≈ 3.75 µM) | 1 (≈ 0.938 µM) | 4 (≈ 3.75 µM) | 4 (≈ 3.75 µM) | 9.52
CC(=O)NNC(=O)[C@H]1[C@@H]2C[C@@H](O[C@@H]3O[C@H](C)[C@@H](O)[C@H](NC(=O)CN)[C@@H]3O)/C=C/C=C/C=C/C=C/C=C/C=C/C=C/[C@H](C)[C@@H](O)[C@@H](C)[C@H](C)OC(=O)C[C@H](O)C[C@H](O)CC[C@@H](O)[C@H](O)C[C@H](O)C[C@](O)(C[C@@H]1O)O2 | 0.06 (≈ 0.0578 µM) | 0.125 (≈ 0.121 µM) | 2 (≈ 1.93 µM) | 0.125 (≈ 0.121 µM) | 1 (≈ 0.964 µM) | 2 (≈ 1.93 µM) | 6
C[C@@H]1[C@H](O)[C@@H](C)/C=C/C=C/C=C/C=C/C=C/C=C/C=C/[C@H](O[C@@H]2O[C@H](C)[C@@H](O)[C@H](NC(=O)CN)[C@@H]2O)C[C@@H]2O[C@](O)(C[C@@H](O)C[C@@H](O)[C@H](O)CC[C@@H](O)C[C@@H](O)CC(=O)O[C@H]1C)C[C@H](O)[C@H]2C(=O)NCCCO | 0.5 (≈ 0.482 µM) | 0.25 (≈ 0.241 µM) | 2 (≈ 1.93 µM) | 0.25 (≈ 0.241 µM) | 0.25 (≈ 0.241 µM) | 0.5 (≈ 0.482 µM) | 7.86
CCOC(=O)NNC(=O)[C@H]1[C@@H]2C[C@@H](O[C@@H]3O[C@H](C)[C@@H](O)[C@H](N)[C@@H]3O)/C=C/C=C/C=C/C=C/C=C/C=C/C=C/[C@H](C)[C@@H](O)[C@@H](C)[C@H](C)OC(=O)C[C@H](O)C[C@H](O)CC[C@@H](O)[C@H](O)C[C@H](O)C[C@](O)(C[C@@H]1O)O2 | 0.25 (≈ 0.247 µM) | 0.25 (≈ 0.247 µM) | 2 (≈ 1.98 µM) | 0.06 (≈ 0.0594 µM) | 0.5 (≈ 0.495 µM) | 2 (≈ 1.98 µM) | 6.29
C[C@@H]1[C@H](O)[C@@H](C)/C=C/C=C/C=C/C=C/C=C/C=C/C=C/[C@H](O[C@@H]2O[C@H](C)[C@@H](O)[C@H](NC(=O)CN)[C@@H]2O)C[C@@H]2O[C@](O)(C[C@@H](O)C[C@@H](O)[C@H](O)CC[C@@H](O)C[C@@H](O)CC(=O)O[C@H]1C)C[C@H](O)[C@H]2C(=O)NCCO | 1 (≈ 0.976 µM) | 2 (≈ 1.95 µM) | 4 (≈ 3.91 µM) | 2 (≈ 1.95 µM) | 4 (≈ 3.91 µM) | 4 (≈ 3.91 µM) | –
CNCC(=O)N[C@@H]1[C@H](O)[C@H](O[C@H]2/C=C/C=C/C=C/C=C/C=C/C=C/C=C/[C@H](C)[C@@H](O)[C@@H](C)[C@H](C)OC(=O)C[C@H](O)C[C@H](O)CC[C@@H](O)[C@H](O)C[C@H](O)C[C@]3(O)C[C@H](O)[C@@H](C(=O)NCCO)[C@H](C2)O3)O[C@H](C)[C@H]1O | 1 (≈ 0.963 µM) | 1 (≈ 0.963 µM) | 2 (≈ 1.93 µM) | 0.5 (≈ 0.482 µM) | 0.125 (≈ 0.12 µM) | 2 (≈ 1.93 µM) | 1.79
CNCC(=O)N[C@@H]1[C@H](O)[C@H](O[C@H]2/C=C/C=C/C=C/C=C/C=C/C=C/C=C/[C@H](C)[C@@H](O)[C@@H](C)[C@H](C)OC(=O)C[C@H](O)C[C@H](O)CC[C@@H](O)[C@H](O)C[C@H](O)C[C@]3(O)C[C@H](O)[C@@H](C(=O)N(C)CCO)[C@H](C2)O3)O[C@H](C)[C@H]1O | 0.5 (≈ 0.475 µM) | 1 (≈ 0.95 µM) | 1 (≈ 0.95 µM) | 0.5 (≈ 0.475 µM) | 2 (≈ 1.9 µM) | 1 (≈ 0.95 µM) | 14.8
CC(C)C(=O)NNC(=O)[C@H]1[C@@H]2C[C@@H](O[C@@H]3O[C@H](C)[C@@H](O)[C@H](N)[C@@H]3O)/C=C/C=C/C=C/C=C/C=C/C=C/C=C/[C@H](C)[C@@H](O)[C@@H](C)[C@H](C)OC(=O)C[C@H](O)C[C@H](O)CC[C@@H](O)[C@H](O)C[C@H](O)C[C@](O)(C[C@@H]1O)O2 | 0.03 (≈ 0.0298 µM) | 0.5 (≈ 0.496 µM) | 0.5 (≈ 0.496 µM) | 0.06 (≈ 0.0595 µM) | 1 (≈ 0.992 µM) | 1 (≈ 0.992 µM) | –
COC(=O)NNC(=O)[C@H]1[C@@H]2C[C@@H](O[C@@H]3O[C@H](C)[C@@H](O)[C@H](NC(=O)CN)[C@@H]3O)/C=C/C=C/C=C/C=C/C=C/C=C/C=C/[C@H](C)[C@@H](O)[C@@H](C)[C@H](C)OC(=O)C[C@H](O)C[C@H](O)CC[C@@H](O)[C@H](O)C[C@H](O)C[C@](O)(C[C@@H]1O)O2 | 0.06 (≈ 0.057 µM) | 0.125 (≈ 0.119 µM) | 0.25 (≈ 0.237 µM) | 1.12 (≈ 1.07 µM) | 0.5 (≈ 0.475 µM) | 2 (≈ 1.9 µM) | 8.84

More lines, main results first:

MIC (Candida albicans) [µg/mL] | MIC (Pichia kudriavzevii [1]) [µg/mL] | MIC (Candida tropicalis) [µg/mL] | MIC (Cryptococcus neoformans) [µg/mL] | MIC (Pichia kudriavzevii [3]) [µg/mL] | MIC (Candida parapsilosis) [µg/mL] | SMILES | HC50 at 1 h [2] [µM]
1 (≈ 0.879 µM) | 1 (≈ 0.879 µM) | 1 (≈ 0.879 µM) | 0.5 (≈ 0.44 µM) | 2 (≈ 1.76 µM) | 0.25 (≈ 0.22 µM) | CNCC(=O)N[C@@H]1[C@H](O)[C@H](O[C@H]2/C=C/C=C/C=C/C=C/C=C/C=C/C=C/[C@H](C)[C@@H](O)[C@@H](C)[C@H](C)OC(=O)C[C@H](O)C[C@H](O)CC[C@@H](O)[C@H](O)C[C@H](O)C[C@]3(O)C[C@H](O)[C@@H](C(=O)N4CCN(CC(O)CO)CC4)[C@H](C2)O3)O[C@H](C)[C@H]1O (stereo not given in full) | 9.06
0.06 (≈ 0.0521 µM) | 0.5 (≈ 0.434 µM) | 1 (≈ 0.869 µM) | 0.5 (≈ 0.434 µM) | 8 (≈ 6.95 µM) | 2 (≈ 1.74 µM) | CNCC(=O)N[C@@H]1[C@H](O)[C@H](O[C@H]2/C=C/C=C/C=C/C=C/C=C/C=C/C=C/[C@H](C)[C@@H](O)[C@@H](C)[C@H](C)OC(=O)C[C@H](O)C[C@H](O)CC[C@@H](O)[C@H](O)C[C@H](O)C[C@]3(O)C[C@H](O)[C@@H](C(=O)N4CCN(CC(C)(O)CO)CC4)[C@H](C2)O3)O[C@H](C)[C@H]1O (stereo not given in full) | 20.6
0.125 (≈ 0.119 µM) | 0.5 (≈ 0.475 µM) | 0.5 (≈ 0.475 µM) | 0.25 (≈ 0.238 µM) | 0.25 (≈ 0.238 µM) | 0.5 (≈ 0.475 µM) | CNCC(=O)N[C@@H]1[C@H](O)[C@H](O[C@H]2/C=C/C=C/C=C/C=C/C=C/C=C/C=C/[C@H](C)[C@@H](O)[C@@H](C)[C@H](C)OC(=O)C[C@H](O)C[C@H](O)CC[C@@H](O)[C@H](O)C[C@H](O)C[C@]3(O)C[C@H](O)[C@@H](C(=O)NCCCO)[C@H](C2)O3)O[C@H](C)[C@H]1O | 6.24
0.5 (≈ 0.464 µM) | 2 (≈ 1.85 µM) | 2 (≈ 1.85 µM) | 0.25 (≈ 0.232 µM) | 4 (≈ 3.71 µM) | 2 (≈ 1.85 µM) | CNCC(=O)N[C@@H]1[C@H](O)[C@H](O[C@H]2/C=C/C=C/C=C/C=C/C=C/C=C/C=C/[C@H](C)[C@@H](O)[C@@H](C)[C@H](C)OC(=O)C[C@H](O)C[C@H](O)CC[C@@H](O)[C@H](O)C[C@H](O)C[C@]3(O)C[C@H](O)[C@@H](C(=O)N4CCC(O)CC4)[C@H](C2)O3)O[C@H](C)[C@H]1O | 6.3
0.25 (≈ 0.22 µM) | 0.5 (≈ 0.44 µM) | 1 (≈ 0.881 µM) | 0.5 (≈ 0.44 µM) | 16 (≈ 14.1 µM) | 4 (≈ 3.52 µM) | CNCC(=O)N[C@@H]1[C@H](O)[C@H](O[C@H]2/C=C/C=C/C=C/C=C/C=C/C=C/C=C/[C@H](C)[C@@H](O)[C@@H](C)[C@H](C)OC(=O)C[C@H](O)C[C@H](O)CC[C@@H](O)[C@H](O)C[C@H](O)C[C@]3(O)C[C@H](O)[C@@H](C(=O)N4CCN(CC(C)(C)O)CC4)[C@H](C2)O3)O[C@H](C)[C@H]1O | 27.7
0.125 (≈ 0.113 µM) | 0.25 (≈ 0.226 µM) | 0.5 (≈ 0.452 µM) | 0.03 (≈ 0.0271 µM) | 2 (≈ 1.81 µM) | 0.5 (≈ 0.452 µM) | CNCC(=O)N[C@@H]1[C@H](O)[C@H](O[C@H]2/C=C/C=C/C=C/C=C/C=C/C=C/C=C/[C@H](C)[C@@H](O)[C@@H](C)[C@H](C)OC(=O)C[C@H](O)C[C@H](O)CC[C@@H](O)[C@H](O)C[C@H](O)C[C@]3(O)C[C@H](O)[C@@H](C(=O)N4CCN(CCO)CC4)[C@H](C2)O3)O[C@H](C)[C@H]1O | 15.1
0.5 (≈ 0.446 µM) | 0.5 (≈ 0.446 µM) | 0.5 (≈ 0.446 µM) | 0.125 (≈ 0.111 µM) | 2 (≈ 1.78 µM) | 0.5 (≈ 0.446 µM) | CNCC(=O)N[C@@H]1[C@H](O)[C@H](O[C@H]2/C=C/C=C/C=C/C=C/C=C/C=C/C=C/[C@H](C)[C@@H](O)[C@@H](C)[C@H](C)OC(=O)C[C@H](O)C[C@H](O)CC[C@@H](O)[C@H](O)C[C@H](O)C[C@]3(O)C[C@H](O)[C@@H](C(=O)N4CCN(CCCO)CC4)[C@H](C2)O3)O[C@H](C)[C@H]1O | 19.5
4 (≈ 3.39 µM) | 8 (≈ 6.78 µM) | 16 (≈ 13.6 µM) | 4 (≈ 3.39 µM) | 16 (≈ 13.6 µM) | 4 (≈ 3.39 µM) | CNCC(=O)N[C@@H]1[C@H](O)[C@H](O[C@H]2/C=C/C=C/C=C/C=C/C=C/C=C/C=C/[C@H](C)[C@@H](O)[C@@H](C)[C@H](C)OC(=O)C[C@H](O)C[C@H](O)CC[C@@H](O)[C@H](O)C[C@H](O)C[C@]3(O)C[C@H](O)[C@@H](C(=O)N4CCN(C(=O)COCCOC)CC4)[C@H](C2)O3)O[C@H](C)[C@H]1O | –
